Measured values published in EP0326331B1, “Substituted quinolines and cinnolines” (Dow AgroSciences LLC, priority 1988, dated 1989).

Experiments:
Assay type in all cases: in vivo
[1] = tested on: Puccinia recondita tritici (leaf rust); experiment: Test 1 greenhouse foliar spray screen, leaf rust on wheat; details: disease control rating, foliar spray on wheat, 400 ppm (+++ at 100 ppm)
[2] = tested on: Cercospora beticola (leaf spot); experiment: Test 1 greenhouse foliar spray screen, leaf spot on sugar beet; details: disease control rating, foliar spray on sugar beet, 400 ppm (+++ at 100 ppm)
[3] = tested on: Botrytis cinerea (gray mold); experiment: Test 1 greenhouse foliar spray screen, gray mold on grape berries; details: disease control rating, spray on grape berries, 400 ppm (+++ at 100 ppm)
[4] = tested on: Septoria tritici (leaf blotch); experiment: Test 1 greenhouse foliar spray screen, leaf blotch on wheat; details: disease control rating, foliar spray on wheat, 400 ppm (+++ at 100 ppm)
corn rootworm = experiment: Mite/insect screen, CRW; details: percent mortality, read-out: CRW RESULTS %; for mortality at 12 ppm: CRW RATE 12.00 PPM; for mortality at 24 ppm: CRW RATE 24.00 PPM
Method in brief: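 Compounds were dissolved in 50:50 acetone/alcohol containing sulfonate/nonionic emulsifier blends (23 g/L plus 13 g/L), then diluted with water to the test concentrations. Percent mortality was scored after standard exposure periods.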

[5] = tested on: southern armyworm (Spodopetra eridania Cramer); experiment: Mite/insect screen, SAW; details: Spodoptera eridania, percent mortality, SAW, read-out: SAW RESULTS %; for mortality at 200 ppm: SM & MA RATE 200 PPM; for mortality at 400 ppm: SM & MA RATE 400 PPM
Method in brief: (§1)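 Compounds dissolved in 50:50 acetone/alcohol containing sulfonate/nonionic emulsifier blends, then diluted with water to the indicated concentrations. Leaves sprayed on both surfaces to runoff at 10 psi and dried one hour. Percent mortality scored after standard exposure periods.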

[6] = tested on: Venturia inaequalis (apple scab); experiment: Test 1 greenhouse foliar spray screen, apple scab on apple seedling; details: disease control rating, foliar spray on apple seedling, 400 ppm (+++ at 100 ppm)
[7] = tested on: Twospotted spider mites (Tetranychus urticae Koch); experiment: Mite/insect screen, SM; details: for mortality at 200 ppm / mortality at 400 ppm: Tetranychus urticae, percent mortality, SAW, read-out: SM RESULTS %; for mortality at 200 ppm: SM & MA RATE 200 PPM; for mortality at 400 ppm: SM & MA RATE 400 PPM; for activity as miticides: summary statement in the description
Method in brief: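 Activity is expressed as percent mortality at the indicated spray concentrations. Plants are sprayed to runoff on upper and lower leaf surfaces with aqueous dilutions of an acetone/alcohol emulsifiable formulation, then dried for one hour.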

[8] = tested on: Pseudoperonospora cubensis (downy mildew); experiment: Test 1 greenhouse foliar spray screen, downy mildew on squash; details: disease control rating, foliar spray on squash, 400 ppm (+++ at 100 ppm)
[9] = tested on: melon aphids (Aphis gossypii Glover); experiment: Mite/insect screen, MA; details: Aphis gossypii, percent mortality, SAW, read-out: MA RESULTS %; for mortality at 200 ppm: SM & MA RATE 200 PPM; for mortality at 400 ppm: SM & MA RATE 400 PPM
Method in brief: as §1

[10] = tested on: Pyricularia oryzae (rice blast); experiment: whole plant or invertebrate; details: for RICE BLAST: disease control rating, foliar spray on rice, 400 ppm (+++ at 100 ppm)
[11] = tested on: Erysiphe graminis tritici (powdery mildew); experiment: Test 1 greenhouse foliar spray screen, powdery mildew on wheat; details: disease control rating, foliar spray on wheat, 400 ppm (+++ at 100 ppm)

Row | SMILES | LEAF RUST [1] | LEAF SPOT [2] | GRAY MOLD [3] | LEAF BLOT [4] | mortality at 12 ppm (corn rootworm) [%] | mortality at 24 ppm (corn rootworm) [%] | mortality at 200 ppm [5] [%] | mortality at 400 ppm [5] [%] | APPL SCAB [6] | mortality at 200 ppm [7] [%] | mortality at 400 ppm [7] [%] | DOWN MDEW [8] | mortality at 200 ppm [9] [%] | mortality at 400 ppm [9] [%] | RICE BLAST [10] | POWD MDEW [11] | activity as miticides [7] | activity against rice blast ([10]; summary statement in the description)
1 | FC(F)(F)c1ccc2c(NCCc3ccc(Cl)cc3Cl)ccnc2c1 [Example 104, N-[2-(2,4-dichlorophenyl)ethyl]-7-(trifluoromethyl)-4-quinolinamine] | - (0-19% control at 400 ppm) | + (20-89% control at 400 ppm) | - (0-19% control at 400 ppm) | - (0-19% control at 400 ppm) | 0 | 0 | 0 | 60 | + (20-89% control at 400 ppm) | 0 | 0 | ++ (90-100% control at 400 ppm) | 0 | 0 | - (0-19% control at 400 ppm) | - (0-19% control at 400 ppm) | – | –
2 | CCN(CCc1ccc(Cl)cc1)c1ccnc2c(F)cccc12 [Example 105, N-[2-(4-chlorophenyl)ethyl]-N-ethyl-8-fluoro-4-quinolinamine] | +++ (90-100% control at 100 ppm) | + (20-89% control at 400 ppm) | - (0-19% control at 400 ppm) | + (20-89% control at 400 ppm) | 0 | 0 | 30 | 0 | - (0-19% control at 400 ppm) | 100 | 0 | +++ (90-100% control at 100 ppm) | 80 | 50 | ++ (90-100% control at 400 ppm) | +++ (90-100% control at 100 ppm) | particularly excellent activity | –
3 | CN(c1ccc(F)cc1)c1ccnc2cc(Cl)ccc12 [Example 106, 7-chloro-N-(4-fluorophenyl)-N-methyl-4-quinolinamine] | + (20-89% control at 400 ppm) | + (20-89% control at 400 ppm) | - (0-19% control at 400 ppm) | + (20-89% control at 400 ppm) | – | 0 | – | 0 | - (0-19% control at 400 ppm) | – | 0 | + (20-89% control at 400 ppm) | – | 0 | + (20-89% control at 400 ppm) | ++ (90-100% control at 400 ppm) | – | –
4 | FC(F)(F)c1cccc(CCNc2ccnc3cc(Cl)ccc23)c1 [Example 107, 7-chloro-N-[2-[3-(trifluoromethyl)phenyl]ethyl]-4-quinolinamine] | + (20-89% control at 400 ppm) | - (0-19% control at 400 ppm) | - (0-19% control at 400 ppm) | - (0-19% control at 400 ppm) | 0 | 0 | 0 | 0 | - (0-19% control at 400 ppm) | 0 | 0 | +++ (90-100% control at 100 ppm) | 0 | 0 | + (20-89% control at 400 ppm) | ++ (90-100% control at 400 ppm) | – | –
5 | Fc1cccc2c(NCCc3cccc(Br)c3)ccnc12 [Example 108, N-[2-(3-bromophenyl)ethyl]-8-fluoro-4-quinolinamine] | ++ (90-100% control at 400 ppm) | - (0-19% control at 400 ppm) | - (0-19% control at 400 ppm) | +++ (90-100% control at 100 ppm) | 0 | – | 0 | – | - (0-19% control at 400 ppm) | 0 | – | + (20-89% control at 400 ppm) | 0 | – | + (20-89% control at 400 ppm) | + (20-89% control at 400 ppm) | – | –
6 | CC(C)(C)c1ccc(CCNc2ccnc3c(F)cccc23)cc1 [Example 111, N-[2-[4-(t-butyl)phenyl]ethyl]--8-fluoro-4-quinolinamine] | +++ (90-100% control at 100 ppm) | - (0-19% control at 400 ppm) | - (0-19% control at 400 ppm) | +++ (90-100% control at 100 ppm) | 0 | 0 | 20 | 20 | - (0-19% control at 400 ppm) | 90 | 80 | +++ (90-100% control at 100 ppm) | 0 | 0 | ++ (90-100% control at 400 ppm) | + (20-89% control at 400 ppm) | particularly excellent activity | particularly excellent activity
7 | Fc1cccc2c(NCCc3ccc(-c4ccccc4)cc3)ccnc12 [Example 113, N-[2-(1,1-biphenyl)-4-yl-ethyl]-8-fluoro-4-quinolinamine] | +++ (90-100% control at 100 ppm) | - (0-19% control at 400 ppm) | - (0-19% control at 400 ppm) | +++ (90-100% control at 100 ppm) | 0 | 100 | 100 | 70 | - (0-19% control at 400 ppm) | 40 | 0 | +++ (90-100% control at 100 ppm) | 0 | 0 | +++ (90-100% control at 100 ppm) | + (20-89% control at 400 ppm) | – | –
8 | Fc1cccc2c(NCCc3ccccc3)cc(Cl)nc12 [Example 116, 2-chloro-8-fluoro-N-(2-phenylethyl)-4-quinolinamine] | +++ (90-100% control at 100 ppm) | + (20-89% control at 400 ppm) | - (0-19% control at 400 ppm) | - (0-19% control at 400 ppm) | 0 | – | 0 | – | + (20-89% control at 400 ppm) | 0 | – | +++ (90-100% control at 100 ppm) | 0 | – | + (20-89% control at 400 ppm) | - (0-19% control at 400 ppm) | – | –
